Experimental data reported in publication PMC7747594, “Protease-activated receptor-2 ligands reveal orthosteric and allosteric mechanisms of receptor inhibition” (Communications Biology, 2020).
“And” between values parts separate entries of the source, which are not always exact repeats. Equal entries are not always repeated. Where two headings read alike, the source gives them in different places. Blank lines part the entries; values can stand above or below the molecule they belong to. Square brackets hold non-standard residues; d marks the D form. Peptide text beside a SMILES is read from it. * marks the point of attachment. Orn = NCCC[C@H](N)C(=O)O; 2Furoyl = O=C(c1ccco1)*

How the values were obtained:
hPAR2 [1] = target: T1, hPAR2 (Homo sapiens, UniProt P55085); assay: Schild and allosteric model analysis of Ca^2+ mobilisation in CHO-hPAR2 cells (2f-LIGRL-NH2 or trypsin); type: cell-based; parameters: key to Relative activity: (Emax·EC50')/(Emax'·EC50), Hill slope held at 1; Emax: scale not given here
T1 sequence (P55085 26-397): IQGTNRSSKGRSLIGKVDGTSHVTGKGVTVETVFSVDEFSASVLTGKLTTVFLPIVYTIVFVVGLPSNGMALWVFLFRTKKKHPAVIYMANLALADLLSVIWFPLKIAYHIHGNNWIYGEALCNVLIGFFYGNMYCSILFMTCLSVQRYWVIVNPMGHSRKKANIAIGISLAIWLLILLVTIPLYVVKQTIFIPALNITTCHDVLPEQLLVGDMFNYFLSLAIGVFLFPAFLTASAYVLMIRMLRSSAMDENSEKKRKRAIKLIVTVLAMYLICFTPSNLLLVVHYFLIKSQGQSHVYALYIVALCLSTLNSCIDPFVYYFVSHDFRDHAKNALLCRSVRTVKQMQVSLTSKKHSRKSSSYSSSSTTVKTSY
Method: (§1) Cells were loaded with Fluo-8 NW calcium dye (AAT Bioquest) for 30 min at 37 °C before compounds in Hank’s balanced salt solution (HBSS, ThermoFisher Scientific) with 20 mM HEPES (ThermoFisher Scientific), 0.1% bovine serum albumin (BSA, Sigma) and 0.5% DMSO were added and simultaneously evaluated for changes in intracellular [Ca^2+] using FLIPR TETRA (Molecular Devices) to detect agonism. For each concentration, the difference between the maximum peak Ca^2+ response and baseline response is reported. […] Antagonism experiments were also carried out on 1321N1-PAR2[WT], 1321N1-PAR2[F154A], and 1321N1-PAR2[G157C] as described. Experiments with trypsin in 1321N1-hPAR2 cells were performed in the presence of 1 µM Vorapaxar (Chemtronica) to remove any interference of PAR1 activity. […] Antagonism experiments for CHO-hPAR2 and HT-29 cells were performed in 96-well plates at 30,000 cells/well. Cells were loaded with Fluo-3 AM calcium dye (Sigma-Aldrich) for 60 min at 37 °C in HBSS with 1% FBS, 0.2% pluronic acid, 20 mM HEPES and 2.5 mM probenecid prior to the addition of antagonist. The antagonist was pre-incubated for 60 min at 37 °C followed by the addition of bovine trypsin (30 nM) at EC80. Intracellular [Ca^2+] flux was measured using FLIPR TETRA (Molecular Devices) and the difference between the maximum peak Ca^2+ response and baseline response is reported.
(§2) Binding data were analysed using the One site – Fit Ki model in GraphPad Prism 8 (GraphPad Software) to determine binding affinity. Pharmacology in vitro potency data was analysed with a 4-parameter logistic fit using the equation y = Bottom + (Top − Bottom)/[…] where y is the response, x is the 10-logarithm of the drug concentration, Bottom is no response and Top is full response in GraphPad Prism 8 or Genedata Screener (Genedata). pEC50 and pIC50 data are presented as mean ± standard error of the mean (s.e.m.) derived from the number of independent experiments stated. Schild slope analysis was calculated using Graphpad Prism 8 Gaddum/Schild EC50 global fitting (shared model parameters between all data sets) competitive model. […] Schild slope quantifies the shifts in agonist response in the presence of antagonist, a Schild slope of 1 indicates the antagonist is competitive and extra-sum-of-squares F-test (p < 0.05) was used to compare the calculated Schild slope against a hypothetical Schild slope of 1. […] The relative activity was calculated using (EmaxEC50’)/(Emax’EC50) with the Hill slope help constant at 1. EC50’ and Emax’ denote the EC50 and Emax in the absence of allosteric modulator, while EC50 and Emax denote those measured in the presence of allosteric modulator. When the Hill slope = 1, the relative activity plot approaches an asymptote corresponding to the estimate of the γ value.

hPAR2 [2] = target: T1, hPAR2; assay: Europium-tagged competition binding assay against Eu-tagged-2f-LIGRLO(dtpa)-NH2 on CHO-hPAR2 cells; parameters: expressed in transfected cells; host or cells: Flp-In CHO; settings: determined with Eu-tagged-2f-LIGRLO(dtpa)-NH2; read-out: equilibrium dissociation constant pKA / pKB (converted)
Method: CHO-hPAR2 cells were seeded overnight in 384-well plate at 2.5 × 10^4 cells/well and blocked with 2% BSA for 60 min. […] Cells were washed 3× with PBS supplemented with 20 µM EDTA, 0.01% Tween and 0.2% BSA followed by addition of DELFIA Enhancement Solution (Perkin Elmer) for 90 min. Time-resolved fluorescence was measured with PHERAstar FS reader (BMG Labtech).
as §2

rat PAR2 = target: T2, rat PAR2 (Rattus norvegicus, UniProt Q63645); assay: Ca^2+ flux assay, inhibition of SLIGRL-NH2 activation in rat KNRK cells; type: cell-based
T2 construct: a rat KNRK cell line with endogenous expression of rat PAR2; host or cells: rat KNRK cells
T2 sequence (Q63645 26-397): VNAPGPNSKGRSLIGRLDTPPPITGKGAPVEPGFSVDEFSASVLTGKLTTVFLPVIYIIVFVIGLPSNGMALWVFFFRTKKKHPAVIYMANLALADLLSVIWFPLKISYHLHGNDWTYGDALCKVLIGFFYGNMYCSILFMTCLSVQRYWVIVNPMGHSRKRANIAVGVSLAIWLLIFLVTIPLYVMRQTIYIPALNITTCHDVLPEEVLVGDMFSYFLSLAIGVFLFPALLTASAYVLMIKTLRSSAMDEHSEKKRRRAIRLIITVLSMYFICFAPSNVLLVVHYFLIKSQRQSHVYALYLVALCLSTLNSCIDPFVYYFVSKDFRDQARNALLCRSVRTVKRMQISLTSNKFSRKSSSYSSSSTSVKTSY

parental 1321N1 cells = assay: Ca^2+ flux assay, agonist mode, parental 1321N1 cells; type: cell-based; parameters: Ca2+ response (Fig 2c), individual replicate values: unit not given here; settings: control
Method: as §1

[3] = agonist in presence of AZ3451 0.1 µM
[4] = agonist in presence of AZ3451 0.3 µM
[5] = agonist in presence of AZ3451 1 µM
[6] = agonist in presence of AZ3451 3 µM
[7] = agonist in presence of AZ3451 10 µM
[8] = agonist in presence of AZ3451 30 µM, CHO-hPAR2, Ca^2+

Molecule: CC[C@H](C)[C@H](NC(=O)[C@H](CC(C)C)NC(=O)c1ccco1)C(=O)NCC(=O)N[C@@H](CCCNC(=N)N)C(=O)N[C@@H](CC(C)C)C(N)=O [2f-LIGRL-NH2, reference compound]
EC50 (hPAR2 [1]): 250 nM

Kb (hPAR2 [2]): 794 nM
Molecule: CC[C@H](C)[C@H](NC(=O)[C@H](CC(C)C)NC(=O)c1ccco1)C(=O)NCC(=O)N[C@@H](CCCN=C(N)N)C(=O)N[C@@H](CC(C)C)C(=O)N[C@@H](CCCN)C(N)=O [2f-LIGRLO-NH2, reference compound] (2Furoyl-LIGRL[Orn]-NH2)

IC50 (rat PAR2): 3160 nM
Molecule: CCc1ccc2c(F)ccc(C(O)c3ncc[nH]3)n12 (stereo not shown) [AZ0107]

Molecule: CC[C@H](C)[C@H](NC(=O)[C@H](CC1CCCCC1)NC(=O)c1ccno1)C(=O)NCc1cccc(C(=O)N2CCC(CN)CC2)c1 [GB110, reference compound]
Ca2+ response (Fig 2c), individual replicate values (parental 1321N1 cells; [compound],M -4.30103): 2.5854 and 0.2936 and 4.934 and 1.6114
Ca2+ response (Fig 2c), individual replicate values (parental 1321N1 cells; [compound],M -4.77815): 2.299 and 3.846 and -3.259
Ca2+ response (Fig 2c), individual replicate values (parental 1321N1 cells; [compound],M -5.25527): 4.705 and 2.815 and -0.222 and 3.388
Ca2+ response (Fig 2c), individual replicate values (parental 1321N1 cells; [compound],M -5.73239): 1.44 and 1.382
Ca2+ response (Fig 2c), individual replicate values (parental 1321N1 cells; [compound],M -6.20952): 3.273 and 1.783 and 1.382 and 0.4082
Ca2+ response (Fig 2c), individual replicate values (parental 1321N1 cells; [compound],M -6.68664): 2.872 and -6.524
Ca2+ response (Fig 2c), individual replicate values (parental 1321N1 cells; [compound],M -7.16376): -2.227 and 0.1217 and -2.055 and -7.498
Ca2+ response (Fig 2c), individual replicate values (parental 1321N1 cells; [compound],M -7.64088): -2.514 and 3.502 and -1.826 and -6.754
Ca2+ response (Fig 2c), individual replicate values (parental 1321N1 cells; [compound],M -8.118): -3.774 and -3.545 and -0.5085
Ca2+ response (Fig 2c), individual replicate values (parental 1321N1 cells; [compound],M -8.59512): -10.4777 and -3.774 and -5.436 and -3.201

Emax (hPAR2 [1]; agonist alone, AZ3451 0 µM): 102
EC50 (hPAR2 [1]; agonist alone, AZ3451 0 µM, read-out: EC50): 6 nM
Emax (hPAR2 [1]; [3]): 96
Emax (hPAR2 [1]; [4]): 90
Emax (hPAR2 [1]; [5]): 90
Emax (hPAR2 [1]; [6]): 89
Emax (hPAR2 [1]; [7]): 74
Emax (hPAR2 [1]; [8]): 61
Molecule: Trypsin
Relative activity (hPAR2 [1]; agonist alone, AZ3451 0 µM): 1
Relative activity (hPAR2 [1]; [3]): 0.43
Relative activity (hPAR2 [1]; [4]): 0.28
Relative activity (hPAR2 [1]; [5]): 0.20
Relative activity (hPAR2 [1]; [6]): 0.17
Relative activity (hPAR2 [1]; [7]): 0.12
Relative activity (hPAR2 [1]; [8]): 0.09
